Reference: patent US6372466B1, “C-4 specific sulfotransferase” (Seikagaku Corporation, priority 1998, dated 2002)
Entries after “also recorded” stand apart in the source; their conditions may differ. Each block holds one compound with its values, some of them ahead of it.

Assays:
Assay type in all cases: biochemical, rat
G4ST [1] = assay: G4ST enzymatic activity assay ([35S]PAPS sulfate transfer to chondroitin)
Method: The activities of G4ST and C6ST were assayed in accordance with the method of Habuchi, O. et al. (Habuchi, O., Matsui, Y., Kotoya, Y., Aoyama, Y., Yasuda, Y., and Noda, M., (1993) J. Biol. Chem., 268, 21968-21974). The reaction mixture contained imidazole hydrochloride (2.5 μmol, pH 6.8), protamine chloride (1.25 μg), dithiothreitol (0.1 μmol), chondroitin (25 nmol as glucuronic acid, derived from squid skin, prepared by the method described in Habuchi, O. and Miyata, K. (1980) Biochim. Biophys. Acta 616, 208-217), [^35S]PAPS (50 pmol: about 5.0×10^5 cpm: prepared by the method of Delfert, D. M., et al. (Delfert, D. M., and Conrad, H. E. (1985) Anal. Biochem. 148, 303-310)) and an enzyme in a final volume of 50 μl.
The above-mentioned reaction mixture was incubated at 37° C. for 20 minutes and immersed in a water bath kept at 100° C. for 1 minute to stop the enzymatic reaction. After the reaction was stopped, [^35S]-labeled chondroitin was isolated by desalting by gel chromatography using a Fast Desalting Column and precipitation with ethanol, and radioactivity was measured by the conventional manner.
To distinguish the activities of C6ST and G4ST one from another, [^35S]-labeled chondroitin was digested with chondroitinase ACII and unsaturated disaccharides (ΔDi-4S (2-acetamide-2-deoxy-3-O-(β-D-gluco-4-enepyranosyluronic acid)-4-O-sulfo-D-galactose) and ΔDi-6S (2-acetamide-2-deoxy-3-O-(β-D-gluco-4-enepyranosyluronic acid-6-O-sulfo-D-galactose)) were separated by paper chromatography (filter paper: Toyo No. 51A and solvent: 1-butanol/acetic acid/NH3 (1 M) (volume ratio 2:3:1)), the separated unsaturated disaccharides were visualized by irradiation of ultraviolet rays, the regions containing the disaccharides were cut out, and then radioactivities thereof were counted.
The amount of enzymatic activity required for transferring 1 pmol of a sulfate group for 1 minute under the conditions of 37° C. and pH 6.8 was defined as one unit as a unit of enzymatic activity.
Also, in the above-mentioned assay method for enzymatic activity, pH of imidazole hydrochloride buffer in the reaction mixture was varied (pH range: 6.3 to 7.6) and in addition, the buffer was replaced by one of buffers having various pH ranges (0.05 M, acetate buffer: pH 4.2 to 5.4, MES buffer: pH 5.4 to 6.8, Tris-HCl buffer: pH 7.2 to 9.0), and G4ST activity was assayed at each pH range (FIG. 6B).
In the above-mentioned assay method for enzymatic activity, the concentration of [^35S]PAPS in the reaction mixture was varied to measure the Km value of [^35S]PAPS as a sulfate group donor.

G4ST [2] = assay: Substrate specificity of G4ST (sulfate transfer to glycosaminoglycans); conditions: for transfer of a sulfate group by G4ST to the glycosaminoglycan as acceptor: 25 nmol as galactosamine or glucosamine, replacing chondroitin in the reaction mixture
Method: According to the measurement method for enzymatic activity described above, the activity of G4ST of transferring a sulfate group to glycosaminoglycans other than chondroitin was measured. A reaction mixture used as a control of reaction was the reaction mixture described for the above-mentioned assay method for enzymatic activity (imidazole hydrochloride (2.5 μmol, pH 6.8), protamine chloride (1.25 μg), dithiothreitol (0.1 μmol), chondroitin (25 nmol as glucuronic acid), [^35S]PAPS (50 pmol: about 5.0×10^5 cpm), and an enzyme, total volume 50 μl) and the activity was measured by replacing the chondroitin contained in the above-mentioned reaction mixture as a control with (1) chondroitin sulfate A (derived from whale cartilage) (manufactured by Seikagaku Corp.), chondroitin sulfate C (derived from shark cartilage) (manufactured by Seikagaku Corp.), and chondroitin sulfate E (derived from squid cartilage) (prepared by the method described in Habuchi, O., Sugiura, K., Kawai, N. and Suzuki, S. (1977) J. Biol. Chem. 252, 4570-4576), (2) dermatan sulfate (derived from pig skin) (manufactured by Seikagaku Corp.), (3) desulfated dermatan sulfate (prepared by the method described by Nagasawa, et al. (Nagasawa, K., Inoue, Y., and Tokuyasu, T. (1995) J. Biochem. 86, 1323-1329)), (4) heparan sulfate (derived from bovine kidney) (manufactured by Seikagaku Corp.), (5) CDSNS-heparin (completely desulfated N-sulfated heparin: manufactured by Seikagaku Corp.), and (6) keratan sulfate (derived from bovine cornea) (manufactured by Seikagaku Corp.) ((1), (2) and (3) were each in an amount of 25 nmol as galactosamine, while (4), (5) and (6) were each in an amount of 25 nmol as glucosamine).
To identify a sulfate group receptor, the purified G4ST was allowed to react with various glycosaminoglycans in the presence of protamine chloride in various concentrations (FIG. 7). In FIG. 7, closed circles indicate the results on chondroitin, open circles indicates the results on desulfated dermatan sulfate, closed triangles indicate the results on chondroitin sulfate A, open triangles indicates the results on chondroitin sulfate C, and closed square indicate the results on dermatan sulfate.
Target sequence in this assay (P69478 101-352 limits assumed): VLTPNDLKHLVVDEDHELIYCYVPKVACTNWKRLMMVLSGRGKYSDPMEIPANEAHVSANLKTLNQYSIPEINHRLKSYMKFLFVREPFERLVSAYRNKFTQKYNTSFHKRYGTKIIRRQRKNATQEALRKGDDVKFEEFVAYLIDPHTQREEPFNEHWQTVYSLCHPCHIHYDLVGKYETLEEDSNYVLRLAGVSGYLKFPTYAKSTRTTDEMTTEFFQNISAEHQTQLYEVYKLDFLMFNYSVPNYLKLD

G4ST [3] = assay: G4ST enzymatic activity assay ([35S]PAPS sulfate transfer to chondroitin); conditions: protamine 0.25 mg/ml
Target sequence in this assay (P69478 101-352 limits assumed): as above

G4ST [4] = assay: Identification of the sulfate group-transferring site of G4ST (chondroitinase digestion, HPLC / Superdex 30); conditions: 35S-labeled by G4ST, digested with chondroitinase ACII, Partisil 10-SAX HPLC
Method: To identify the sulfate group-transferring. site of chondroitin and desulfated dermatan sulfate, ^35S-labeled glycosaminoglycan obtained by sulfotransfer reaction by G4ST was digested with chondroitinase ACII (manufactured by Seikagaku Corp.) or chondroitinase ABC (manufactured by Seikagaku Corp.) and the digestion products were analyzed by HPLC (high performance liquid chromatography). ^35S-Labeling was performed under the same conditions as the above-mentioned assay method for enzymatic activity except that the amount of protamine chloride was increased to 10 μg. The unsaturated disaccharides obtained by the digestion of ^35S-labeled chondroitin and ^35S-labeled desulfated dermatan sulfate with chondroitinase ACII or chondroitinase ABC were isolated by HPLC using a Partisil 10-SAX column (4.5 mm×25 cm: manufactured by Whatman) equiberated with KH2PO4 (35 mM). The column was eluted by concentration gradient of KH2PO4 under the conditions of a flow rate of 1 ml/minute and a column temperature of 40° C. to recover 0.5 ml of fractions.
Further, a Superdex 30 gel chromatography was performed using a digestion product obtained by digesting ^35S-labeled desulfated dermatan sulfate with chondroitinase ABC and chondroltinase ACII or chondroitinase ACII alone. […]
Target sequence in this assay (P69478 101-352 limits assumed): as above

[5] = SH group-containing substance in the reaction mixture

Compound: [Mg+2] [Mg^2+]
activating action on G4ST compared with other metal ions (G4ST [1]; concentration not printed for Mg2+): lowest in such an activating action

Compound: OCCS [2-mercaptoethanol]
effect on G4ST activity (G4ST [1]; [5]): enhanced the G4ST activity

Compound: [Mn+2] [Mn^2+]
effect on G4ST activity (G4ST [1]; metal ion 5 mM): activated; also recorded: enhanced

Compound: [Ca+2] [Ca^2+]
effect on G4ST activity (G4ST [1]; metal ion 5 mM): activated; also recorded: most activated; also recorded: enhanced

Compound: chondroitin sulfate A
transfer of a sulfate group by G4ST to the glycosaminoglycan as acceptor (G4ST [2]): slight amount of activity; also recorded: transfers a sulfate group

Compound: O[C@H](CS)[C@H](O)CS (racemic) [dithiothreitol]
effect on G4ST activity (G4ST [1]; [5]): enhanced the activity of G4ST

Compound: protamine
effect on G4ST activity (G4ST [3]): activated; also recorded: enhanced

Compound: [Fe+2] [Fe^2+]
effect on G4ST activity (G4ST [1]; metal ion 5 mM): activated; also recorded: enhanced

Compound: [Sr+2] [Sr^2+]
effect on G4ST activity (G4ST [1]; metal ion 5 mM): activated; also recorded: enhanced

Compound: keratan sulfate
transfer of a sulfate group by G4ST to the glycosaminoglycan as acceptor (G4ST [2]): transferred substantially no sulfate group

Compound: [Co+2] [Co^2+]
effect on G4ST activity (G4ST [1]; metal ion 5 mM): inhibit the activity of G4ST; also recorded: inhibited

Compound: chondroitin sulfate C
transfer of a sulfate group by G4ST to the glycosaminoglycan as acceptor (G4ST [2]): transfers a sulfate group

Compound: chondroitin
transfer of a sulfate group by G4ST to the glycosaminoglycan as acceptor (G4ST [2]): transfers a sulfate group
lowest protamine chloride concentration at which enhancement of activity was observed (G4ST [2]; protamine chloride in various concentrations): 0.25 mg/mL
radioactivity in eluted fractions of ΔDi-4S (G4ST [4]): radioactivity was detected only in the eluted fractions of ΔDi-4S

Compound: chondroitin sulfate E
transfer of a sulfate group by G4ST to the glycosaminoglycan as acceptor (G4ST [2]): transferred substantially no sulfate group

Compound: heparan sulfate
transfer of a sulfate group by G4ST to the glycosaminoglycan as acceptor (G4ST [2]): transferred substantially no sulfate group; also recorded: transfers substantially no sulfate group

Compound: N[C@@H](CCC(=O)N[C@@H](CS)C(=O)NCC(=O)O)C(=O)O [reduced glutathione]
effect on G4ST activity (G4ST [1]; [5]): enhanced the G4ST activity

Km (G4ST [1]; [35S]PAPS as sulfate group donor, concentration varied): 0.27 µM
Compound: Nc1ncnc2c1ncn2[C@@H]1O[C@H](COP(=O)(O)OS(=O)(=O)O)[C@@H](OP(=O)(O)O)[C@H]1O [PAPS, 3′-phosphoadenosine 5′-phosphosulfate]

Compound: [Ba+2] [Ba^2+]
effect on G4ST activity (G4ST [1]; metal ion 5 mM): activated; also recorded: enhanced

Compound: dermatan sulfate
transfer of a sulfate group by G4ST to the glycosaminoglycan as acceptor (G4ST [2]): transferred substantially no sulfate group
